Patent US10669272B2, “Substituted naphthyridinone compounds useful as T cell activators” (BRISTOL-MYERS SQUIBB COMPANY, priority 2018, dated 2020)
pEC50, pIC50: −log10 of the molar value. Where two headings read alike, the source gives them in different places.

How the values were obtained:
human DGKα = molecular target: T1, human DGKα (Homo sapiens, UniProt P23743); test: DGKα LIPGLO assay (extruded liposome substrate), in vitro DGK inhibition; type: biochemical; settings: liposome (LIPGLO) assay; read-out: DGKa LIPGLO IC50
T1 construct: TVMV protease cleavage site (C); Hexa-His (C); made in house; host or cells: Sf9 insect cells (baculovirus, Bac-to-Bac)

human DGKζ = molecular target: T2, human DGKζ (Homo sapiens, UniProt Q13574); test: DGKζ LIPGLO assay (extruded liposome substrate), in vitro DGK inhibition; type: biochemical; settings: liposome (LIPGLO) assay; read-out: DGKz LIPGLO IC50
T2 construct: TVMV protease cleavage site (C); Hexa-His (C); made in house; host or cells: Sf9 insect cells (baculovirus, Bac-to-Bac)

[1] = tested on: OT-1 CD8+ T cells with SIINFEKL-loaded MC38 tumor cells; test: Murine cytotoxic T lymphocyte assay (IFN-γ, OT-1 CTL with MC38 tumor cells); type: cell-based, mouse; settings: read-out: msCTL INFg IC50
Summary of the method: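 IFN-γ was quantified by AlphaLISA in supernatants after 24 h co-culture at 37° C. Effectors were OT-1 CD8+ CTLs (5-day peptide/mIL2 expansion), exposed 1 h to DGK inhibitors before mixing 1:10 with MC38 tumor cells loaded 3 h with 1 μg/mL SIINFEKL peptide.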

naïve human CD8 T cells = test: Human CD8 T cells IFN-γ assay; type: cell-based; settings: normalized to 3 μM reference compound with anti-CD3 plus anti-CD28 as 100% activation, read-out: HuCD8 INFG Normalized EC50;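 note: Naïve human CD8 T cells stimulated with plate-bound anti-CD3 and soluble anti-CD28, IFN-γ in supernatant quantified by AlphaLISA and converted to pg/mL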
Human venous whole blood = test: Human whole blood IFN-γ assay; type: cell-based; settings: human whole blood, normalized to 3 μM reference compound with anti-CD3 plus anti-CD28 as 100% activation, read-out: INFg Whole Blood Normalized Agonist EC50;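 note: blood from healthy donors exposed to compound for 1 h before stimulation with anti-CD3 and anti-CD28 at 1 µg/mL each, IFN-γ quantified in supernatant by AlphaLISA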

T1 sequence (P23743 with tags, fused parts or gaps): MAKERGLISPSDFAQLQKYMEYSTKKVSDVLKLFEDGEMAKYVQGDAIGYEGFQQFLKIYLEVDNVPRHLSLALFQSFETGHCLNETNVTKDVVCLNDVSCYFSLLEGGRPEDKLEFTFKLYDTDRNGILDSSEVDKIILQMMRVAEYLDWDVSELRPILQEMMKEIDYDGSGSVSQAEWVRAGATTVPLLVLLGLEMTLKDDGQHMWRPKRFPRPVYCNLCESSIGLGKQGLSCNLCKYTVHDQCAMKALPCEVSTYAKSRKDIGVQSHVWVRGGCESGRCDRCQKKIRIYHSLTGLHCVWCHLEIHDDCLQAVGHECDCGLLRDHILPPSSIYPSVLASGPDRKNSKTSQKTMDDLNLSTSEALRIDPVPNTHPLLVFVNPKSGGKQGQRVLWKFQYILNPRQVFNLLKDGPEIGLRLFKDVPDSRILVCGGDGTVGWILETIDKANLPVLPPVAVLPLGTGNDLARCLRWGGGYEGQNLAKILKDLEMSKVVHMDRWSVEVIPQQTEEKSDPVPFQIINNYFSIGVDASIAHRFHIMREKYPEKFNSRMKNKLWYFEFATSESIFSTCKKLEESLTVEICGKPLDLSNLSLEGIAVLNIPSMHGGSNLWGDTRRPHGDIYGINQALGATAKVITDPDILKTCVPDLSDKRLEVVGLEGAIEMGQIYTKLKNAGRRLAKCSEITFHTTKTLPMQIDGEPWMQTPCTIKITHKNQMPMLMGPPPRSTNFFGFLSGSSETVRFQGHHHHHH
T2 sequence (Q13574 with tags, fused parts or gaps isoform Q13574-4): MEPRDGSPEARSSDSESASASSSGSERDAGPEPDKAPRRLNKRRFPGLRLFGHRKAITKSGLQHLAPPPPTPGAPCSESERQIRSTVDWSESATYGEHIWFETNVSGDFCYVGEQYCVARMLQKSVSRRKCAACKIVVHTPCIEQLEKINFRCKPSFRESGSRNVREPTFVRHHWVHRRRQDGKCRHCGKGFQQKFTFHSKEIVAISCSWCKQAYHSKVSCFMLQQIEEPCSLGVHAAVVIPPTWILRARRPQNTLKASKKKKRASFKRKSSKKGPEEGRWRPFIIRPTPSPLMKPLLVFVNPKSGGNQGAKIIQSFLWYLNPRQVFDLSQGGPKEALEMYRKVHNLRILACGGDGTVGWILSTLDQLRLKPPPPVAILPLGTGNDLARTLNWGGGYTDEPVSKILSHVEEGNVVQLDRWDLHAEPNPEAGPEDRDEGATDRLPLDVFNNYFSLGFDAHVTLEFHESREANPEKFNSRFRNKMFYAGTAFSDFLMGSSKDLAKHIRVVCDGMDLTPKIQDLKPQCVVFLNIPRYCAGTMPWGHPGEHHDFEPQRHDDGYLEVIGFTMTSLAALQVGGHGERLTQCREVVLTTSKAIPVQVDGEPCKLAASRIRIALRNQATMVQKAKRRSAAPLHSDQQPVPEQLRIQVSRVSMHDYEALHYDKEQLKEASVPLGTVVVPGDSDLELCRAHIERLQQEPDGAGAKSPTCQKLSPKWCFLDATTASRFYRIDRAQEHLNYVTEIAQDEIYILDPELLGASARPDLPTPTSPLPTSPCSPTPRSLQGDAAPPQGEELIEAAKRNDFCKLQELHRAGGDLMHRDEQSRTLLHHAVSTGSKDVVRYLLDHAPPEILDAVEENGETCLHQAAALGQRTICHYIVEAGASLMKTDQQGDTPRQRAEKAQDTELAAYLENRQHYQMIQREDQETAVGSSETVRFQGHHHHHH

Row | Compound | pIC50 (human DGKα) | pIC50 (human DGKζ) | pIC50 ([1]; Mus musculus, MC-38) | pEC50 (naïve human CD8 T cells) | pEC50 (Human venous whole blood; Homo sapiens, 24 h) | pEC50 (naïve human CD8 T cells; Homo sapiens, T-cell, 20 h) | pIC50 [1] | pEC50 (Human venous whole blood)
1 | Cn1c(=O)cc(N2CCN(C(c3ccc(F)cc3)c3ccc(F)cc3)C(C(N)=O)C2)c2nc(C#N)ccc21 (single isomer, unassigned) [Example 42, 1-(bis(4-fluorophenyl)methyl)-4-(6-cyano-1-methyl-2-oxo-1,2-dihydro-1,5-naphthyridin-4-yl)piperazine-2-carboxamide] | 3.74 | 5.01 | 5.59 | 6.21 | 5.51 |  |  | 
2 | COC(=O)C1CN(c2c(Cl)c(=O)n(C)c3ccc(C#N)nc23)CCN1C(c1ccc(F)cc1)c1ccc(F)cc1 (single isomer, unassigned) [Example 77, methyl 1-(bis(4-fluorophenyl)methyl)-4-(3-chloro-6-cyano-1-methyl-2-oxo-1,2-dihydro-1,5-naphthyridin-4-yl)piperazine-2-carboxylate] | 4.09 | 3.62 |  | 5.00 |  |  | 5.48 | 5.77
3 | Cn1c(=O)cc(N2CCN(C(c3ccc(F)cc3)c3ccc(F)cc3)C(C(C)(C)O)C2)c2nc(C#N)ccc21 (single isomer, unassigned) [Example 78, 8-(4-(bis(4-fluorophenyl)methyl)-3-(2-hydroxypropan-2-yl)piperazin-1-yl)-5-methyl-6-oxo-5,6-dihydro-1,5-naphthyridine-2-carbonitrile] | 4.74 | 5.72 |  | 6.68 | 5.08 |  | 5.70 | 
4 | Cn1c(=O)cc(N2CCN(C(c3ccc(F)cc3)c3ccc(F)cc3)C(C(C)(C)F)C2)c2nc(C#N)ccc21 (single isomer, unassigned) [Example 81, 8-(4-(bis(4-fluorophenyl)methyl)-3-(2-fluoropropan-2-yl)piperazin-1-yl)-5-methyl-6-oxo-5,6-dihydro-1,5-naphthyridine-2-carbonitrile] | 4.60 | 4.80 |  |  |  | 5.77 | 6.24 | 5.06
5 | CC(C)C(C)(O)C1CN(c2cc(=O)n(C)c3ccc(C#N)nc23)CCN1C(c1ccc(F)cc1)c1ccc(F)cc1 (single isomer, unassigned) [Example 88, 8-(4-(bis(4-fluorophenyl)methyl)-3-(2-hydroxy-3-methylbutan-2-yl)piperazin-1-yl)-5-methyl-6-oxo-5,6-dihydro-1,5-naphthyridine-2-carbonitrile] | 3.85 | 3.62 |  |  | 5.00 | 5.70 | 6.00 | 
6 | COCC1CN(c2cc(=O)n(C)c3ccc(C#N)nc23)CCN1C(c1ccc(F)cc1)c1ccc(F)cc1 (single isomer, unassigned) [Example 92, 8-(4-(bis(4-fluorophenyl)methyl)-3-(methoxymethyl)piperazin-1-yl)-5-methyl-6-oxo-5,6-dihydro-1,5-naphthyridine-2-carbonitrile] | 4.02 | 5.27 |  | 5.01 |  |  | 6.16 | 5.05
7 | COC(=O)C1CN(c2cc(=O)n(C)c3ccc(C#N)nc23)CCN1C(c1ccc(Cl)cc1)c1ccc(Cl)cc1 (single isomer, unassigned) [Example 97, methyl 1-(bis(4-chlorophenyl)methyl)-4-(6-cyano-1-methyl-2-oxo-1,2-dihydro-1,5-naphthyridin-4-yl)piperazine-2-carboxylate] | 4.85 | 5.77 | 7.02 |  |  | 7.24 |  | 5.77
8 | Cn1c(=O)cc(N2CCN(C(c3ccc(F)cc3)c3ccc(F)cc3)C(C(=O)OC3CC3)C2)c2nc(C#N)ccc21 (single isomer, unassigned) [Example 106, cyclopropyl 1-(bis(4-fluorophenyl)methyl)-4-(6-cyano-1-methyl-2-oxo-1,2-dihydro-1,5-naphthyridin-4-yl)piperazine-2-carboxylate] | 3.62 | 4.89 |  | 6.21 | 5.07 |  | 5.54 | 
9 | Cn1c(=O)cc(N2CCN(C(c3ccc(F)cc3)c3ccc(F)cc3)C(C(=O)OC3CC3)C2)c2nc(C#N)ccc21 (single isomer, unassigned) [Example 107, cyclopropyl 1-(bis(4-fluorophenyl)methyl)-4-(6-cyano-1-methyl-2-oxo-1,2-dihydro-1,5-naphthyridin-4-yl)piperazine-2-carboxylate] | 4.40 | 6.70 |  | 7.57 |  |  | 6.12 | 4.96
10 | COc1cc(F)ccc1C(c1ccc(F)cc1)N1C[C@H](C)N(c2cc(=O)n(C)c3ccc(C#N)nc23)C[C@H]1C (single isomer, unassigned) [Example 109] | 4.62 | 7.00 |  | 7.82 |  |  | 6.32 | 5.89

The next molecules have a higher pIC50 (human DGKα) than those just listed; values first:

Row | pIC50 (human DGKα) | pIC50 (human DGKζ) | Compound | pIC50 ([1]; Mus musculus, MC-38) | pEC50 (naïve human CD8 T cells) | pEC50 (Human venous whole blood; Homo sapiens, 24 h) | pEC50 (naïve human CD8 T cells; Homo sapiens, T-cell, 20 h) | pIC50 [1] | pEC50 (Human venous whole blood)
11 | 5.14 | 5.62 | Cn1c(=O)cc(N2CCN(C(c3ccc(F)cc3)c3ccc(F)cc3)C(C#N)C2)c2nc(C#N)ccc21 (single isomer, unassigned) [Example 45, 8-(4-(bis(4-fluorophenyl)methyl)-3-cyanopiperazin-1-yl)-5-methyl-6-oxo-5,6-dihydro-1,5-naphthyridine-2-carbonitrile] |  | 6.28 |  |  | 6.04 | 5.64
12 | 5.17 | 3.62 | Cn1c(=O)cc(N2CCN(C(c3ccc(F)cc3)c3ccc(F)cc3)C(C(C)(C)O)C2)c2nc(C#N)ccc21 (single isomer, unassigned) [Example 79, 8-(4-(bis(4-fluorophenyl)methyl)-3-(2-hydroxypropan-2-yl)piperazin-1-yl)-5-methyl-6-oxo-5,6-dihydro-1,5-naphthyridine-2-carbonitrile] |  | 5.00 |  |  | 5.10 | 5.00
13 | 5.37 | 6.17 | COCC1CN(c2cc(=O)n(C)c3ccc(C#N)nc23)CCN1C(c1ccc(F)cc1)c1ccc(F)cc1 (single isomer, unassigned) [Example 93, 8-(4-(bis(4-fluorophenyl)methyl)-3-(methoxymethyl)piperazin-1-yl)-5-methyl-6-oxo-5,6-dihydro-1,5-naphthyridine-2-carbonitrile] |  | 7.20 |  |  | 7.09 | 5.85
14 | 5.47 | 5.28 | COC(=O)C1CN(c2c(Cl)c(=O)n(C)c3ccc(C#N)nc23)CCN1C(c1ccc(F)cc1)c1ccc(F)cc1 (single isomer, unassigned) [Example 76, methyl 1-(bis(4-fluorophenyl)methyl)-4-(3-chloro-6-cyano-1-methyl-2-oxo-1,2-dihydro-1,5-naphthyridin-4-yl)piperazine-2-carboxylate] |  |  | 5.80 | 5.00 | 6.55 | 
15 | 5.47 | 6.89 | COc1cc(F)ccc1C(c1ccc(F)cc1)N1C[C@H](C)N(c2cc(=O)n(C)c3ccc(C#N)nc23)C[C@H]1C (single isomer, unassigned) [Example 108] |  | 7.48 |  |  | 6.89 | 6.36
16 | 5.48 | 5.80 | Cn1c(=O)c(Cl)c(N2CCN(C(c3ccc(F)cc3)c3ccc(F)cc3)C(CO)C2)c2nc(C#N)ccc21 (single isomer, unassigned) [Example 101, 8-(4-(bis (4-fluorophenyl)methyl)-3-(hydroxymethyl)piperazin-1-yl)-7-chloro-5-methyl-6-oxo-5,6-dihydro-1,5-naphthyridine-2-carbonitrile] |  | 7.11 |  |  | 6.85 | 5.64
17 | 5.54 | 5.26 | Cn1c(=O)cc(N2CCN(C(c3ccc(F)cc3)c3ccc(F)cc3)C(C#N)C2)c2nc(C#N)ccc21 (single isomer, unassigned) [Example 44, 8-(4-(bis(4-fluorophenyl)methyl)-3-cyanopiperazin-1-yl)-5-methyl-6-oxo-5,6-dihydro-1,5-naphthyridine-2-carbonitrile] | 6.23 |  | 5.41 | 6.34 |  | 
18 | 5.66 | 6.12 | COC(=O)C1CN(c2c(C#N)c(=O)n(C)c3ccc(C#N)nc23)CCN1C(c1ccc(F)cc1)c1ccc(F)cc1 (single isomer, unassigned) [Example 50, methyl 1-(bis(4-fluorophenyl)methyl)-4-(3,6-dicyano-1-methyl-2-oxo-1,2-dihydro-1,5-naphthyridin-4-yl)piperazine-2-carboxylate] |  | 7.14 | 5.82 |  | 6.82 | 
19 | 5.72 | 5.51 | Cn1c(=O)c(Cl)c(N2CCN(C(c3ccc(F)cc3)c3ccc(F)cc3)C(CO)C2)c2nc(C#N)ccc21 (single isomer, unassigned) [Example 100, 8-(4-(bis (4-fluorophenyl)methyl)-3-(hydroxymethyl)piperazin-1-yl)-7-chloro-5-methyl-6-oxo-5,6-dihydro-1,5-naphthyridine-2-carbonitrile] | 6.96 |  | 5.85 | 7.05 |  | 
